Series [1] concerns subjects with schizophrenia. Kind of series: Correlation of pre-treatment resting-state EEG metrics (power law exponent, beta power) with response to poma treatment (MCCB domain scores), clinical trials NCT00845026 and NCT01052103. It is filed as in vivo, human. Conditions: subgroups of patients identified by EEG metrics (Examples 1-3). An excerpt:
The power spectrum of resting state EEG signals, when viewed in the frequency domain (that is, with frequency of oscillation on the x-axis and power on the y-axis), forms roughly a straight line, when viewed on a log-log plot; see FIG.5 (from Miller et al. […] PLoS Comput Biol 5(12): e1000609)
Mathematically, this can be expressed as log (P)=k−βlog (f), or equivalently, P αf−β1/fβ), where P=power, f=frequency, −β is the slope of the fitted line, and k is a constant. This phenomenon is known by various terms, such as a “power law” spectrum or “1/f noise”. It is often referred to as “scale invariant” or “fractal” behavior (Lowen and Teich, 2005), as the power law exponent, β, is constant regardless of the resolution at which it is calculated.
This study used data from clinical trials NCT00845026 (N=117) and NCT01052103 (N=196), which studied male and female subjects with schizophrenia treated with poma vs. antipsychotic agent standard of care. […] We calculated only power at the stimulated frequency and, for recordings in the resting state, the power law exponent (PLE; also known as the “fractal exponent”). […] We calculated all predictive measures for each EEG electrode. […]

In series [2] the test system is subjects with schizophrenia. The following applies: cited from earlier work.
The conditions of series [3]: humans; cited from earlier work.

The values that follow come from patent US20220313170A1, “METHOD OF INCREASING COGNITIVE FUNCTION WITH GLUTAMATE RECEPTOR AGONIST” (priority 2019, published 2022).

The structures appear in SMILES notation.

With `CSCC[C@H](N)C(=O)N[C@@]1(C(=O)O)CS(=O)(=O)[C@H]2[C@H](C(=O)O)[C@H]21` [poma, Pomaglumetad methionil], the “Cognitive function in measures of working memory, reasoning/problem solving, and attention/vigilance” value in series [1] is listed as “significant improvement in cognitive function”. Moreover, the “Efficacy versus placebo as determined with PANSS total scores” value in series [2] (clinical studies, halted) is recorded as “not significantly more efficacious than the placebo”. In series [2] (early phase II monotherapy trial), the “Dosage shown to be efficacious” value is 40 mg BID.
In the case of `N[C@@]1(C(=O)O)CS(=O)(=O)[C@H]2[C@H](C(=O)O)[C@H]21` [pomaglumetad], the “Oral absorption and bioavailability” value in series [3] was “low”.
